For five compounds, EC50, ERBB2 degradation and IC50 results are on record in patent US20240124460A1, “METHODS AND COMPOSITIONS FOR TARGETED PROTEIN DEGRADATION” (Ranok Therapeutics (Hangzhou) Co. Ltd., priority 2020, published 2024).

The subject of experiment [1] is MV-4-11 human acute myeloid leukemia. Briefly: MV-4-11 CCK-8 proliferation assay. The class given is cell-based. Conditions: Homo sapiens, MV4-11; MV-4-11 cells, 72 hr. The method in brief:
(§1)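 CCK-8 absorbance read-out, with inhibition expressed against DMSO-treated cells after subtracting a cell-free DMSO medium blank. Compounds tested over a 3-fold dilution series spanning 20 μM to 1.02 nM; lines grown essentially as ATCC recommends.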
On the technique in general: Tetrazolium dyes change colour on reduction, which living cells bring about.

Experiment [2] has as its system U-87 MG human glioblastoma. In words: U87 MG CCK-8 proliferation assay. The class given is cell-based. To be noted: Homo sapiens, U-87 MG, 72 h, U-87 MG cells, read-out: U87MG CCK-8. Summed up: as §1
In experiment [3] the test system is ERBB2. In words: ERBB2 (HER2) flow cytometry protein degradation assay in BT-474 cells. The class given is cell-based, human. To be noted: DC50, BT-474 cells, 24 hr. How it is done: To analyze total ERBB2 expression by flow cytometry, cells were detached with trypsin, washed, counted and treated with 10 μl/10^6 cells PE-conjugated, anti-ERBB2 monoclonal antibody (R&D Systems, #FAB1129P) for 30 min at 25° C. in dark. Cells were then washed, resuspended in 200 μl 1% paraformaldehyde and analyzed by flow cytometry.
% Inhibition=100−(D−B)/(S−B)*100%. • S: Fluorescence intensity of cells with antibody • D: Fluorescence intensity of compound-treated cells with antibody • B: Fluorescence intensity of cells without antibody
(Flow cytometry measures light scatter and fluorescence of single cells or particles in a stream.)

Experiment [4] has as its target T1, HSP90α protein (Homo sapiens, UniProt P07900).
T1 construct: purchased BPS Bioscience #50298
Briefly: HSP90α-binding FP (BODIPY) assay. Conditions: FP competition with BODIPY-labeled RNK04010. Summed up: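 Fluorescence polarization measured competition with N-terminal human HSP90α, using either FITC-geldanamycin or BODIPY-labelled triazolone RNK04010 as tracer (5 nM final each). Compounds were tested in 2.5-fold dilutions from 20 μM to 5.2 nM, with incubation at 25 °C for 120 min (FITC) or 300 min (BODIPY).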

By IC50 is commonly meant the concentration that gives 50% inhibition. A low value points to greater potency in that assay. Take `CCOc1cc(N2CCC(C(=O)N3CCC(Cc4ccc(CN(C)Cc5ccc(-n6c(C(=O)NCC(F)(F)F)nnc6-c6cc(C(C)C)c(O)cc6O)cc5)cn4)CC3)CC2)ccc1Nc1ncc2c(n1)N(C)c1ccccc1C(=O)N2C` [Compound 057, 5-(2,4-dihydroxy-5-isopropylphenyl)-4-(4-((((6-((1-(1-(4-((5,11-dimethyl-6-oxo-6,11-dihydro-5H-benzo[e]pyrimido[5,4-b][1,4]diazepin-2-yl)amino)-3-ethoxyphenyl)piperidine-4-carbonyl)piperidin-4-yl)methyl)pyridin-3-yl)methyl)(methyl)amino)methyl)phenyl)-N-(2,2,2-trifluoroethyl)-4H-1,2,4-triazole-3-carboxamide]: the EC50 in experiment [1] is below 0.1 µM; in experiment [2] it was 0.1 to 1 µM. The ERBB2 degradation result in experiment [3] is listed as “B (DC50 = 100-1000 nM)”. This compound also came in with an IC50 in experiment [4] of 0.1 to 1 µM.
On to `CCOc1cc(N2CCC(C(=O)NCCOCCOc3ccc(Nc4ccc(-n5nc(C(F)(F)F)c6c5CC(C)(C)CC6=O)cc4C(N)=O)cc3)CC2)ccc1Nc1ncc2c(n1)N(C)c1ccccc1C(=O)N2C` [Compound 065, N-(2-(2-(4-((2-carbamoyl-4-(6,6-dimethyl-4-oxo-3-(trifluoromethyl)-4,5,6,7-tetrahydro-1H-indazol-1-yl)phenyl)amino)phenoxy)ethoxy)ethyl)-1-(4-((5,11-dimethyl-6-oxo-6,11-dihydro-5H-benzo[e]pyrimido[5,4-b][1,4]diazepin-2-yl)amino)-3-ethoxyphenyl)piperidine-4-carboxamide], for which the EC50 in experiment [1] and in experiment [2] was above 1 µM in each case. In experiment [3], the ERBB2 degradation result is “C (DC50 > 1000 nM)”. Also, the IC50 in experiment [4] is above 1 µM.
For `CCOc1cc(N2CCC(C(=O)N3CCC(CN4CCN(CCCOc5ccc(Nc6ccc(-n7nc(C(F)(F)F)c8c7CC(C)(C)CC8=O)cc6C(N)=O)cc5)CC4)CC3)CC2)ccc1Nc1ncc2c(n1)N(C)c1ccccc1C(=O)N2C` [Compound 066], the EC50 in experiment [1] and in experiment [2] was above 1 µM each time. Moreover, the ERBB2 degradation entry in experiment [3] is recorded as “C (DC50 > 1000 nM)”. Further, in experiment [4], the IC50 is above 1 µM.
For the compound `CCOc1cc(N2CCC(C(=O)N3CCC(CN4CCN(Cc5ccc(-n6c(O)nnc6-c6cc(CC)c(O)cc6O)cc5)CC4)CC3)CC2)ccc1Nc1ncc2c(n1)N(S(C)(=O)=O)c1ccccc1C(=O)N2C` [Compound 070, 2-((2-ethoxy-4-(4-(4-((4-(4-(3-(5-ethyl-2,4-dihydroxyphenyl)-5-hydroxy-4H-1,2,4-triazol-4-yl)benzyl)piperazin-1-yl)methyl)piperidine-1-carbonyl)piperidin-1-yl)phenyl)amino)-5-methyl-11-(methylsulfonyl)-5,11-dihydro-6H-benzo[e]pyrimido[5,4-b][1,4]diazepin-6-one], the EC50 in experiment [1] is below 0.1 µM; in experiment [2], 0.1 to 1 µM. The ERBB2 degradation entry in experiment [3] is “B (DC50 = 100-1000 nM)”. The IC50 in experiment [4] lay within 0.1 to 1 µM.
On to `CCOc1cc(N2CCC(C(=O)N3CCC(CN4CCN(Cc5ccc(-n6c(C(=O)NC7CC7)nnc6-c6cc(CC)c(O)cc6O)cc5)CC4)CC3)CC2)ccc1Nc1ncc2c(n1)N(S(C)(=O)=O)c1ccccc1C(=O)N2C` [Compound 075, N-cyclopropyl-4-(4-((4-((1-(1-(3-ethoxy-4-((5-methyl-11-(methylsulfonyl)-6-oxo-6,11-dihydro-5H-benzo[e]pyrimido[5,4-b][1,4]diazepin-2-yl)amino)phenyl)piperidine-4-carbonyl)piperidin-4-yl)methyl)piperazin-1-yl)methyl)phenyl)-5-(5-ethyl-2,4-dihydroxyphenyl)-4H-1,2,4-triazole-3-carboxamide], for which the EC50 in experiment [1] and in experiment [2] was below 0.1 µM throughout. Besides, in experiment [3], the ERBB2 degradation entry is on record as “B (DC50 = 100-1000 nM)”. In experiment [4], the IC50 is below 0.1 µM.
